Data taken from article PMC7893202 (Acta Pharmaceutica Sinica. B, 2020).
pKd: −log10 of the molar value.

Target: T1, estrogen receptor-alpha (ERα) (Homo sapiens, UniProt P03372)
T1 sequence (P03372 311-547 limits assumed): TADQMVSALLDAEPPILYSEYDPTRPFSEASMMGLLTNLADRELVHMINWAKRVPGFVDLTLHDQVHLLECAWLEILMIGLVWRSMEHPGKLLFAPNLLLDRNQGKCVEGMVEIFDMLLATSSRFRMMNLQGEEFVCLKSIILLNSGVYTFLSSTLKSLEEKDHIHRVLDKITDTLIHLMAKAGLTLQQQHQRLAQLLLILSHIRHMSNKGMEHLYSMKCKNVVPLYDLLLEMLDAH
Test: fluorescence titration
Format: binding

Compound Cc1cc(O)cc2oc3cc(O)cc(O)c3c(=O)c12 [compound 1, norlichexanthone] has a pKd of 8.00.
